Experimental data: the supplement of paper PMC10307832

Tests used:
Assay in all cases: relative viability (nuclei count vs DMSO), 5 days (fraction); higher = more cells survive
Gemcitabine + Lapatinib = compound: Nc1ccn([C@@H]2O[C@H](CO)[C@@H](O)C2(F)F)c(=O)n1 [Gemcitabine] + CS(=O)(=O)CCNCc1ccc(-c2ccc3ncnc(Nc4ccc(OCc5cccc(F)c5)c(Cl)c4)c3c2)o1 [Lapatinib] (partner 2 µM)
Procedure, shortened: (§1)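 Lung cancer cell lines in 1536-well plates got either a single drug or a fixed anchor-drug dose together with five library-drug doses (not always all listed) in √10 steps, by pin tool, on the day after seeding. Nuclei were counted after 5 days, and relative viability is the treated-to-vehicle ratio of nuclei counts. Values are medians of duplicate plates.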

Gemcitabine + Crizotinib = compound: Nc1ccn([C@@H]2O[C@H](CO)[C@@H](O)C2(F)F)c(=O)n1 [Gemcitabine] + C[C@@H](Oc1cc(-c2cnn(C3CCNCC3)c2)cnc1N)c1c(Cl)ccc(F)c1Cl [Crizotinib] (partner 1 µM)
Procedure, shortened: as §1

Gemcitabine + Dasatinib = compound: Nc1ccn([C@@H]2O[C@H](CO)[C@@H](O)C2(F)F)c(=O)n1 [Gemcitabine] + Cc1nc(Nc2ncc(C(=O)Nc3c(C)cccc3Cl)s2)cc(N2CCN(CCO)CC2)n1 [Dasatinib] (partner 0.075 µM)
Procedure, shortened: as §1

Gemcitabine + Pemetrexed = compound: Nc1ccn([C@@H]2O[C@H](CO)[C@@H](O)C2(F)F)c(=O)n1 [Gemcitabine] + Nc1nc2[nH]cc(CCc3ccc(C(=O)N[C@@H](CCC(=O)O)C(=O)O)cc3)c2c(=O)[nH]1 [Pemetrexed] (partner 0.2 µM)
Procedure, shortened: as §1

Cell Line	relative viability (Gemcitabine + Lapatinib; first compound 0.001 µM)	relative viability (Gemcitabine + Lapatinib; first compound 0.003162 µM)	relative viability (Gemcitabine + Lapatinib; first compound 0.01 µM)	relative viability (Gemcitabine + Lapatinib; first compound 0.03162 µM)	relative viability (Gemcitabine + Lapatinib; first compound 0.1 µM)	relative viability (Gemcitabine + Crizotinib; first compound 0.001 µM)	relative viability (Gemcitabine + Crizotinib; first compound 0.003162 µM)	relative viability (Gemcitabine + Crizotinib; first compound 0.01 µM)	relative viability (Gemcitabine + Crizotinib; first compound 0.03162 µM)	relative viability (Gemcitabine + Crizotinib; first compound 0.1 µM)	relative viability (Gemcitabine + Dasatinib; first compound 0.001 µM)	relative viability (Gemcitabine + Dasatinib; first compound 0.003162 µM)	relative viability (Gemcitabine + Dasatinib; first compound 0.01 µM)	relative viability (Gemcitabine + Dasatinib; first compound 0.03162 µM)	relative viability (Gemcitabine + Dasatinib; first compound 0.1 µM)	relative viability (Gemcitabine + Pemetrexed; first compound 0.001 µM)	relative viability (Gemcitabine + Pemetrexed; first compound 0.003162 µM)	relative viability (Gemcitabine + Pemetrexed; first compound 0.01 µM)	relative viability (Gemcitabine + Pemetrexed; first compound 0.03162 µM)	relative viability (Gemcitabine + Pemetrexed; first compound 0.1 µM)
NCI-H1650	0.669	0.706	0.406	0.179	0.17	0.974	0.875	0.638	0.158	0.145	0.297	0.241	0.141	0.088	0.115	0.362	0.326	0.305	0.157	0.172
NCI-H3122	1.02	1.04	0.926	0.476	0.243	0.306	0.27	0.253	0.135	0.119	0.852	0.89	0.588	0.0797	0.0782	0.196	0.206	0.191	0.138	0.105
PC-3 [JPC-3]	0.468	0.416	0.424	0.278	0.266	1	0.838	0.611	0.295	0.246	1.01	0.925	0.635	0.252	0.207	1.23	0.566	0.434	0.414	0.31
NCI-H1651	0.863	1	0.678	0.165	0.0838	0.913	0.855	0.85	0.346	0.138	0.412	0.495	0.257	0.0946	0.0687	0.561	0.575	0.584	0.362	0.0991
NCI-H2087	0.9	0.814	0.396	0.17	0.161	0.963	0.8	0.405	0.133	0.161	0.746	0.499	0.169	0.0893	0.0871	0.666	0.581	0.263	0.113	0.105
